{"source": "patent US20010053777A1", "about": "“Drug treatment for restless leg syndrome” (priority 1999, published 2001)", "key": {"patients with RLS": {"tested_on": "patients with RLS", "assay": "Treatment of 2 patients with RLS: therapeutic history, monotherapy trials and combination therapy", "format": "in vivo, human", "details": "for side effects: dose-limiting or intolerable", "protocol": "2 patients with RLS (person and person) were treated with a combination therapy of pramipexole and clonidine.\nThe clonidine was also initially prescribed in a single dose of 0.075 mg two hours before bedtime and increased by 0.075 mg at intervals of 3 days.\n2. Treatment with a combination therapy of clonidine and pramipexole After slowly bringing the clonidine therapy to a complete halt and after a treatment-free period of about 1 week, both patients were treated with a combination of 0.088 mg of pramipexole and 0.075 mg of clonidine. […] After 7 days the dosage of pramipexole had been increased to 0.18 mg and the dosage of clonidine to 0.15 mg, two hours before going to nd sleep."}, "[1]": {"tested_on": "Restless Leg Syndrome (RLS) patients", "details": "cited from earlier work; for relief from the complaint: a few partly open trials or long-term therapy; for effectiveness in RLS: short-term therapy trials or trials cited in the background"}, "[2]": {"details": "0.225 mg (male) / 0.45 mg (female) single dose before bedtime"}, "[3]": {"details": "2 RLS patients, previous therapy or monotherapy"}}, "data": [{"compound": "Cc1nnc2n1-c1sc(Br)cc1C(c1ccccc1Cl)=NC2", "note": "[Brotizolam]", "values": [{"measurement": "falling asleep and sleeping through", "setting": "patients with RLS; 2 RLS patients, previous therapy", "result": "improved"}]}, {"compound": "NC(=O)N1c2ccccc2C=Cc2ccccc21", "note": "[Carbamazepine]", "values": [{"measurement": "relief from the complaint", "setting": "[1]", "result": "only partial relief"}]}, {"compound": "N[C@@H](Cc1ccc(O)c(O)c1)C(=O)O", "note": "[L-DOPA]", "values": [{"measurement": "augmentation under therapy", "setting": "patients with RLS; both RLS patients, previous therapy, disappeared on switch to a dopamine agonist", "result": "typical augmentation during the day"}, {"measurement": "relief from the complaint", "setting": "[1]", "result": "significant alleviation of the complaint"}]}, {"compound": "CC(C)C[C@H]1C(=O)N2CCC[C@H]2[C@]2(O)O[C@](NC(=O)[C@@H]3C[C@@H]4c5cccc6[nH]cc(c56)C[C@H]4N(C)C3)(C(C)C)C(=O)N12", "note": "[alpha-dihydroergocryptine]", "values": [{"measurement": "effectiveness in RLS", "setting": "[1]", "result": "effective"}]}, {"compound": "C=CCN1C[C@H](C(=O)N(CCCN(C)C)C(=O)NCC)C[C@@H]2c3cccc4[nH]cc(c34)C[C@H]21", "note": "[cabergoline]", "values": [{"measurement": "effectiveness in RLS", "setting": "[1]", "result": "effective"}]}, {"compound": "Clc1cccc(Cl)c1NC1=NCCN1", "note": "[clonidine, 2-(2,6-dichloroanilino)-4,5-dihydroimidazole]", "values": [{"measurement": "compulsive movements", "setting": "patients with RLS; [2]", "result": "improved"}, {"measurement": "paresthesia felt", "setting": "patients with RLS; [2]", "result": "hardly any"}, {"measurement": "quality of sleep and number of times they woke during the night", "setting": "patients with RLS; [2]", "result": "not changed"}, {"measurement": "side effects", "setting": "patients with RLS; [3]", "result": "dry mouth, dizziness and constipation"}, {"measurement": "perceived symptoms such as paresthesia, compulsive movement and tiredness during the day", "setting": "[1]; daily doses 0.1-0.9 mg, 4 open trials, 2 double-blind placebo-controlled trials, a single case study", "result": "(statistically significant) reduction"}, {"measurement": "sleep latency (polysomnographic)", "setting": "[1]; daily doses 0.1-0.9 mg", "result": "shortened"}, {"measurement": "quality of sleep, frequency of waking or periodic leg movements in sleep (PLMS)", "setting": "[1]; daily doses 0.1-0.9 mg, polysomnographic", "result": "not affected"}]}, {"compound": "CCN(CC)C(=O)N[C@H]1C=C2c3cccc4[nH]cc(c34)C[C@H]2N(C)C1", "note": "[lisuride]", "values": [{"measurement": "effectiveness in RLS", "setting": "[1]", "result": "effective"}]}, {"compound": "CCCN1C[C@H](CSC)C[C@@H]2c3cccc4[nH]cc(c34)C[C@H]21", "note": "[pergolide]", "values": [{"measurement": "side effects", "setting": "patients with RLS; [3]", "result": "nausea, gastrointestinal problems and dizziness"}, {"measurement": "effectiveness in RLS", "setting": "[1]", "result": "effective"}]}, {"compound": "CCCN[C@H]1CCc2nc(N)sc2C1", "note": "[pramipexole, (S)-2-amino-6-n-propylamino-4,5,6,7-tetrahydro-benzothiazole]", "values": [{"measurement": "RLS symptoms (discomfort, cramps and pains in the legs, compulsive movement, sleep problems, daytime tiredness)", "setting": "patients with RLS; [3]", "result": "certainly improved"}, {"measurement": "difference from earlier therapy", "setting": "patients with RLS; pramipexole 0.36 mg (male) / 0.27 mg (female) daily, two hours before bedtime", "result": "did not report any difference"}, {"measurement": "effectiveness in RLS", "setting": "[1]", "result": "effective"}]}, {"compound": "CCCN(CCC)CCc1cccc2c1CC(=O)N2", "note": "[ropinirol]", "values": [{"measurement": "effectiveness in RLS", "setting": "[1]", "result": "effective"}]}, {"compound": "bromocryptine", "values": [{"measurement": "effectiveness in RLS", "setting": "[1]", "result": "effective"}]}]}
